According to patent US8003630B2, “Combinatorial therapies for the treatment of neoplasias using the opioid growth factor receptor” (The Penn State Research Foundation, priority 2004, dated 2011):
Marks after values point to notes of the source that are not given here.

Experiments:
[1] = system: carcinomas of the colon and rectum; details: single agent; cited from earlier work
[2] = metabolized primarily in the liver; cited from earlier work
MiaPaCa-2 cells [3] = test: Growth curves of MiaPaCa-2 cells, cell proliferation (MTT) assay, absorbency; details: for Significance from 5-FU 10^−6 M Values: 5-FU 10^−5 M alone or with OGF; for Significance from 5-FU 10^−5 M Values: 5-FU 10^−6 M alone or with OGF (b: 5-FU 10^−5 M more inhibitory); for decrease in cell number from controls: MiaPaCa-2
From the text: Cells were counted using a standard MTT assay. In general, each data point represents the average absorbency taken from 10 wells/treatment; error bars represent the S.E.M.

MiaPaCa-2 cells [4] = test: Gemcitabine and OGF cell cycle phase analysis by flow cytometry; assay type: cell-based, human
Procedure: To investigate the exact cell cycle phase where gemcitabine and/or OGF exerted their effects, flow cytometry was performed.

MiaPaCa-2 cells [5] = test: OGF/gemcitabine treatment in athymic nude mouse model (Example 5); assay type: in vivo, athymic nude mice; details: day 16 after tumor cell inoculation
From the text: To examine the effectiveness of the combined OGF/gemcitabine treatments in vivo, an athymic nude mouse model was used.

MiaPaCa-2 cells [6] = test: Gemcitabine growth curve, actual cell counts; assay type: cell-based, human; details: MiaPaCa-2 cell counts
MIA PaCa-2 cells [7] = test: Growth assays of MIA PaCa-2 cells (MTS assay or cell counting), Example 7; assay type: cell-based, human; details: for decrease in cell number relative to controls: OGF 10^−6 M and/or gemcitabine 10^−8 M
Procedure: (§1) MIA PaCa-2 and PANC-1 human pancreatic adenocarcinoma cell lines were purchased from the American Type Culture Collection (Manasass, Va.). MIA PaCa-2 cells were derived from an undifferentiated epithelial carcinoma occurring in the body and tail of the pancreas in a person. The PANC-1 cells were derived from an undifferentiated carcinoma from the head of the pancreas in a person. MIA PaCa-2 and PANC-1 cells were grown in Dulbecco's MEM (modified) media; media was supplemented with 10% fetal calf serum, 1.2% sodium bicarbonate, and antibiotics (5,000 Units/ml penicillin, 5 mg/ml streptomycin, 10 mg/ml neomycin), and the cells were maintained in a humidified atmosphere of 7% CO2/93% air at 37° C.
MIA PaCa-2 cells were seeded at equivalent amounts into either 75 cm^2 flasks, 6-well plates, or 96-well plates (Falcon) and counted 24 hr later to determine plating efficiency. Growth assays for PANC-1 cells were conducted in 6-well plates (Falcon). Compounds or sterile water were added beginning 24 hr after seeding (=0 hr), and both media and compounds were replaced daily. All drugs were prepared in sterile water and dilutions represent final concentrations of the compounds.
(§2) Cell number was recorded either by using a mitogenic bioassay, the MTS assay (Cell Titer 96 One Solution, Promega, Madison, Wis.), and measuring absorbency after 4 hr on a Biorad (Model 3550) plate reader at 490 nm, or by counting cells. For manual counts, cells were harvested with a solution of 0.25% trypsin/0.53 mM EDTA, centrif uiged, and counted with a hemacytometer. Cell viability was determined by trypan blue staining. At least two aliquots per flask or 4-10 wells/treatment were counted at each time.

PANC-1 cells = test: Growth assay of PANC-1 cells in 6-well plates; assay type: cell-based, human; details: 72 hr, OGF 10^−6 M and/or gemcitabine 10^−8 M
Procedure: as §1
MIA PaCa-2 cells were seeded at equivalent amounts into either 75 cm^2 flasks, 6-well plates, or 96-well plates (Falcon) and counted 24 hr later to determine plating efficiency. […]
as §2

MIA PaCa-2 cells [8] = test: MIA PaCa-2 xenograft in nude mice, tumor appearance, growth and termination day measurements (Example 7); assay type: in vivo, BALB/c-nu/nu nude mice
From the text: Male 4 week old BALB/c-nu/nu nude mice purchased from Harlan Laboratories (Indianapolis, Ind.) were housed in pathogen-free isolators in the Department of Comparative Medicine at the Penn State University College of Medicine. All procedures were approved by the IACUC committee of the Penn State University College of Medicine and conformed to the guidelines established by NIH. Mice were allowed 48 hr to acclimate prior to beginning experimentation.
MIA PaCa-2 cells (10^6 cells/mouse) were inoculated into nude mice by subcutaneous injection into the right scapular region; mice were not anesthetized for this procedure.
All drugs were dissolved in saline and prepared weekly. Injections were given within 1 hr of tumor cell inoculation.
Mice were weighed weekly throughout the experiment, and observed daily for the presence of tumors. The latency for a visible tumor to appear, and the time until tumors were measurable (i.e., 62.5 mm^3) were recorded. Tumors were measured using calipers every day after tumor appearance. Tumor volume was calculated using the formula w^2×1×π/6, where the length is the longest dimension, and width is the dimension perpendicular to length.
According to IACUC guidelines, mice were terminated when tumors became ulcerated, or tumors grew to 2 cm in diameter. Forty-five days following tumor cell inoculation, all mice were euthanized by an overdose of sodium pentobarbital (100 mg/kg) and killed by cervical dislocation; mice (with tumors) were weighed. Tumors and spleens were removed and weighed, and the lymph nodes, liver, and spleen examined for metastases.

In the case of `O=c1[nH]cc(F)c(=O)[nH]1` [5-FU, 5-fluorouracil], the mean response rate [1] is given as “less than 20%”, the “drug appearing unchanged in urine” value [2] is given as 10% and the “Significance from 5-FU 10^−6 M Values” (MiaPaCa-2 cells [3]; 48 h) is given as “###^b (Significantly different from 5-FU 10^−6 M at p < 0.001 (###))”. The “Significance from 5-FU 10^−5 M Values” (MiaPaCa-2 cells [3]; 48 h) was “^^^^b (Significantly different from 5-FU 10^−5 M at p < 0.001)”, the “Significance from 5-FU 10^−6 M Values” (MiaPaCa-2 cells [3]; 72 h) was “###^b (Significantly different from 5-FU 10^−6 M at p < 0.001 (###))” and the “Significance from 5-FU 10^−5 M Values” (MiaPaCa-2 cells [3]; 72 h) was “^^^^b (Significantly different from 5-FU 10^−5 M at p < 0.001)”. The “Significance from 5-FU 10^−6 M Values” (MiaPaCa-2 cells [3]; 96 h) was “###^b (Significantly different from 5-FU 10^−6 M at p < 0.001 (###))”, the “Significance from 5-FU 10^−5 M Values” (MiaPaCa-2 cells [3]; 96 h) was “^^^^b (Significantly different from 5-FU 10^−5 M at p < 0.001)” and the “decrease in cell number from controls” value (MiaPaCa-2 cells [3]; 48 h, 5-FU 10^-5 M and/or OGF 10^−6 M) was 26.0%. For the same molecule, the “decrease in cell number from controls” value (MiaPaCa-2 cells [3]; 48 h, 5-FU 10^-6 M alone or with OGF 10^−6 M) was 12.7%, the “decrease in cell number from controls” value (MiaPaCa-2 cells [3]; 72 h, 5-FU 10^-5 M and/or OGF 10^−6 M) was 30.1% and the “decrease in cell number from controls” value (MiaPaCa-2 cells [3]; 72 h, 5-FU 10^-6 M alone or with OGF 10^−6 M) was 10.8%. The “decrease in cell number from controls” value (MiaPaCa-2 cells [3]; 96 h, 5-FU 10^-5 M and/or OGF 10^−6 M) was 36.4% and the “decrease in cell number from controls” value (MiaPaCa-2 cells [3]; 96 h, 5-FU 10^-6 M alone or with OGF 10^−6 M) was 15.2%.

With `Nc1ccn([C@@H]2O[C@H](CO)[C@@H](O)C2(F)F)c(=O)n1` [gemcitabine] the “cells in the G1 phase of the cell cycle” value (MiaPaCa-2 cells [4]; 48 hours of treatment) was 73.50%, the “cells in the G1 phase of the cell cycle” value (MiaPaCa-2 cells [4]; 120 hours of treatment) was 60.75% and the mice with tumors (MiaPaCa-2 cells [5]) was 75%. For the same molecule, the “decrease in cell number relative to controls” value (MiaPaCa-2 cells [6]; 24 h, gemcitabine 10^−7 M or OGF 10^−6 M alone) was 30.1%, the “decrease in cell number relative to controls” value (MiaPaCa-2 cells [6]; 48 h, gemcitabine 10^−7 M or OGF 10^−6 M alone) was 46.4% and the “decrease in cell number relative to controls” value (MiaPaCa-2 cells [6]; 48 h, gemcitabine 10^−8 M alone or with OGF 10^−6 M) was 21.7%. For the same molecule, the “decrease in cell number relative to controls” value (MiaPaCa-2 cells [6]; 72 h, gemcitabine 10^−7 M or OGF 10^−6 M alone) was 47.7%, the “decrease in cell number relative to controls” value (MiaPaCa-2 cells [6]; 72 h, gemcitabine 10^−8 M alone or with OGF 10^−6 M) was 21.2% and the “decrease in cell number relative to controls” value (MiaPaCa-2 cells [6]; 96 h, gemcitabine 10^−7 M or OGF 10^−6 M alone) was 64.2%. The “decrease in cell number relative to controls” value (MiaPaCa-2 cells [6]; 96 h, gemcitabine 10^−8 M alone or with OGF 10^−6 M) was 32.4%, the inhibition at 0.01 µM (MIA PaCa-2 cells [7]; Homo sapiens, MIA PaCa-2, 96 h, read-out: inhibition of cell growth relative to control levels) was 13 to 36% and the “decrease in cell number relative to controls” value (MIA PaCa-2 cells [7]; MIA PaCa-2, 48 hr) was 22%. The “decrease in cell number relative to controls” value (MIA PaCa-2 cells [7]; MIA PaCa-2, 72 hr) was 21%, the “difference in cell number between reversal group and group continuing drug exposure” value (MIA PaCa-2 cells [7]; MIA PaCa-2, 96 hr (48 hr after reversal)) was “did not differ” and the “decrease in cell number relative to controls” value (MIA PaCa-2 cells [7]; MIA PaCa-2, 96 hr) was 32%. For the same molecule, the “fewer cells than in control cultures” value (PANC-1 cells) was 31%, the “day from which tumor volume differed from controls” value (MIA PaCa-2 cells [8]; at least p<0.05) was 14 days and the “mice with measurable tumors” value (MIA PaCa-2 cells [8]; day 10) was 75%. For the same molecule, the “tumor volumes decreased from control values” (MIA PaCa-2 cells [8]; day 45) was 56%, the “weight of the spleen decreased from control values” (MIA PaCa-2 cells [8]; day 45) was “approximately 40%” and the “Body Weight” value (MIA PaCa-2 cells [8]; day 45, means ± SEM) was 27.4 ± 0.55 g. The “Spleen Weight” value (MIA PaCa-2 cells [8]; day 45, means ± SEM) was 454 ± 49 mg, the “Tumor Volume, mm^3” value (MIA PaCa-2 cells [8]; day 45, means ± SEM) was 3963 ± 123*** mm^3 and the “Tumor Weight” value (MIA PaCa-2 cells [8]; day 45, means ± SEM) was 2.4 ± 0.1 g. The “Latency to measurable tumor” value (MIA PaCa-2 cells [8]; means ± SEM) was 13.1 ± 1.0 days, the “Latency to visible tumor” value (MIA PaCa-2 cells [8]; means ± SEM) was 11.1 ± 1.1 days and the “Tumor Incidence, day 16” value (MIA PaCa-2 cells [8]; mice with tumor/N) was 11/12. For the same molecule, the “Tumor Incidence, day 10” value (MIA PaCa-2 cells [8]; mice with tumor/N, OGF 10 mg/kg daily and/or gemcitabine 120 mg/kg every 3 days i.p.) was 9/12 and the “weights of tumors decreased from control levels” value (MIA PaCa-2 cells [8]; termination day (day 45)) was 56%.
